Test results from patent publication US20240241099A1, “METHOD FOR IDENTIFYING PI3 KINASE-ALPHA INHIBITORS” (UNIVERSITÄT BASEL, priority 2021, published 2024).

Legend:
[1] = Metabolic stability in rat liver microsomes; assay type: in vitro ADME; conditions: rat liver microsomes 0.5 mg protein/mL, 1 μM, 60 minutes
Procedure: (§1) The experiments were performed in triplicate; CNX-1351 was used as positive control (irreversible inhibitor) and PQR514 as negative control (reversible inhibitor). (b) Metabolic stability of 19, 22 and CNX-1351 using rat liver microsomes. The time-dependent loss of test items (1 μM) with liver microsomes (0.5 mg microsomal protein/mL) and the percentages of test item remaining after 60 minutes of incubation were measured, (n=2).
The metabolic stability of 19, 22 and CNX-1351 was evaluated in vitro in rat liver microsomes.

[2] = biological target: PI3Kα (Homo sapiens, UniProt P42336); assay: TR-FRET tracer displacement / time-dependent inhibition (IC50 shift) assay; assay type: binding
PI3Kα, sequence (P42336 whole entry): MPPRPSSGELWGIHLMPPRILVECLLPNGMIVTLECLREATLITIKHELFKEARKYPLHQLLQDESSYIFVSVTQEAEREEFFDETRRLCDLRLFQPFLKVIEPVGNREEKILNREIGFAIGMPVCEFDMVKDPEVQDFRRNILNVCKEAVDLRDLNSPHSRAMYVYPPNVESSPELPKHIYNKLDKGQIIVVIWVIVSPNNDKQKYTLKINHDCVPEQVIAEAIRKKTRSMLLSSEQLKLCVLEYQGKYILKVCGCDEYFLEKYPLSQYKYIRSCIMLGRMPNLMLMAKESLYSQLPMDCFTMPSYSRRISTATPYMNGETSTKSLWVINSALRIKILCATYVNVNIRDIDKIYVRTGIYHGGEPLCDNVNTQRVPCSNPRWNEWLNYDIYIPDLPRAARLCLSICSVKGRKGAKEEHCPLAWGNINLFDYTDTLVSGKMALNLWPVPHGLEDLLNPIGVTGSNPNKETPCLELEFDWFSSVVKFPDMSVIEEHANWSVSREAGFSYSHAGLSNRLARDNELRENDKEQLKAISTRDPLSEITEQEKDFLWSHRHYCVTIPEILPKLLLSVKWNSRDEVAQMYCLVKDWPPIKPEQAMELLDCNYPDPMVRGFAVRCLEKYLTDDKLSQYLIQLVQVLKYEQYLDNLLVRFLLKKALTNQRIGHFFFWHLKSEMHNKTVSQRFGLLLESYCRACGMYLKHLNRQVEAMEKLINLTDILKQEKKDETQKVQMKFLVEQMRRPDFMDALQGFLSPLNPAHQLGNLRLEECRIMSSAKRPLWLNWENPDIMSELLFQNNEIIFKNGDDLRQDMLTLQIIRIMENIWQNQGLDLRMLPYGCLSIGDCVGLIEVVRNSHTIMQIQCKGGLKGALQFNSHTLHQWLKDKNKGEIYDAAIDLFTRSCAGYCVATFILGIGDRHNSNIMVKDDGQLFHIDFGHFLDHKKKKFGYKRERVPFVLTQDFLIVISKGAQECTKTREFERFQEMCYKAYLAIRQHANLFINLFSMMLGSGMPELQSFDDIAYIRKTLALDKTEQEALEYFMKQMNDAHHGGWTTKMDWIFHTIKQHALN
PI3Kα, sequence (P27986 whole entry partner): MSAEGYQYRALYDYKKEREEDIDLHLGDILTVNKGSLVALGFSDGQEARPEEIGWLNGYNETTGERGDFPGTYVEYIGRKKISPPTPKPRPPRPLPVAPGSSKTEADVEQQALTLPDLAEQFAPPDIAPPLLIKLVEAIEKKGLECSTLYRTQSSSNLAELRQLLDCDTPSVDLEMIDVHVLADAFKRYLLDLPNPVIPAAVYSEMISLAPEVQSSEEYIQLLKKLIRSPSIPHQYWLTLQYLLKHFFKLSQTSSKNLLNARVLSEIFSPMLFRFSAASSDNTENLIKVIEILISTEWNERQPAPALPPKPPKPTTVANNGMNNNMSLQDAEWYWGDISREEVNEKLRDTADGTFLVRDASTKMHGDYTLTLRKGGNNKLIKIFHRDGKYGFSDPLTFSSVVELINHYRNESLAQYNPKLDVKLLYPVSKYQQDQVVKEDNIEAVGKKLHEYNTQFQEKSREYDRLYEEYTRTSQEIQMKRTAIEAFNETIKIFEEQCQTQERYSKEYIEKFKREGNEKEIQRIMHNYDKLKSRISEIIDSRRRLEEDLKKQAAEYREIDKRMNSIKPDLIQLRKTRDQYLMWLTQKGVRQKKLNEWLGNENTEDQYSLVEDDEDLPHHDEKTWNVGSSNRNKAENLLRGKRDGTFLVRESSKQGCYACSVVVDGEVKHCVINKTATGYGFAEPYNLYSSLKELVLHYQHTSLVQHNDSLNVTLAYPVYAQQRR
Procedure: The B-methyl substituted enone (2) and its corresponding moderately electrophilic derivative, β,β-dimethyl enone (3) were selected to explore the target space. A collection of compounds with pairwise matched linkers but either fast (2, 10-12) or moderate (3, 13-15) reacting Michael acceptors were synthesized (FIG. 3A). A time-dependent inhibition (IC50 shift) assay with five pre-incubation times was designed to identify covalent, time-dependent inhibitors. For compounds bearing a fast-reacting warhead (2, 10-12) a significant IC50 shift was observed also for compounds having their Michael acceptor at >4 Å from the cysteine thiol (FIG. 3E). […] The increased efficiency in covalent bond formation for 12 is due to the irreversible binding rather than an improvement in reversible affinity (see Ki values in FIG. 3D). […]
The library was tested for cellular potency on inhibition of PKB phorphorilation, considered as an indicator of inhibition of PI3K signaling. Time-resolved fluorescence resonance (TR-FRET) tracer displacement assay was used to determine the rate constant for irreversible inactivation (kinact) and the second order rate constant typically used to characterize the covalent binding of irreversible inhibitors to the target protein (kinact/Ki). […]

[3] = test system: AktSer473 phosphorylation in SKOV3 ovarian cancer cells; assay: Cellular washout study in SKOV3 cells, P-AktSer473 by immunoblot; assay type: cell-based; conditions: 2.5 μM for 2 hours, then washout
Procedure: as §1
The experiments were performed in triplicate; CNX-1351 was used as positive control (irreversible inhibitor) and PQR514 as negative control (reversible inhibitor).
The library of acrylamide-containing compounds was evaluated for PI3K signaling in SKOV3 ovarian cancer cells. […] Inhibition of AktSer473 phosphorylation measured by immunoblot analysis was used as an indicator of inhibition of PI3K signaling. Cells were incubated with the drugs (2.5 μM each) for 2 hours.
The library of enone-containing compounds was evaluated for PI3K signaling in SKOV3 ovarian cancer cells. […] Inhibition of AktSer473 phosphorylation measured by immunoblot analysis was used as an indicator of inhibition of PI3K signaling. Cells were incubated with the drugs (2.5 μM each) for 2 hours.

[4] = test system: PKB phosphorylation on Ser473 in SKOV3 cells; assay: In-cell Western assay of PKB Ser473 phosphorylation in SKOV3 cells; assay type: cell-based; conditions: n = 3, read-out: pPKB S473 IC50

Row | SMILES | metabolic stability [1] | kinact/Ki, [nM^−1s^−1] ([2]; TR-FRET efficiency of covalent bond formation) [nM⁻¹ s⁻¹] | kinact, [s^−1] ([2]; TR-FRET rate constant for irreversible inactivation) [s⁻¹] | P-AktSer473 signaling after drug washout [3] | IC50 [4] [µM]
1 | CC(C)=CC(=O)CCC(=O)N1CCN(Cc2cc3nc(-c4cccc5[nH]ncc45)nc(N4CCOCC4)c3s2)CC1 [CNX-1351] | rapidly metabolized | 1.73e-05 | 0.000657 | prolonged inhibition | 0.29
2 | Nc1ncc(-c2nc(N3CCOCC3)nc(N3CCOCC3)n2)c(C(F)F)n1 [PQR514] |  |  |  | immediately recovered | 
